Measured values from patent publication US20220187282A1, “CARDIOMYOCYTE PROLIFERATION” (The Council of the Queensland Institute of Medical Research, priority 2019, published 2022).

Experiments:
Format in all cases: biochemical
kinases [1] = molecular target: kinases (Homo sapiens, UniProt Q15835); conditions: GRK1 FRET-Lantha SP; Test Conc(μM) 1
kinases [2] = molecular target: kinases (Homo sapiens, UniProt Q9Y243); conditions: AKT3 (PKB gamma) Z-Lyte SP; Test Conc(μM):ATP Conc(μM) 1:100
kinases [3] = molecular target: kinases (Homo sapiens, UniProt O00418); conditions: EEF2K FRET-Z-Lyte SP; Test Conc(μM):ATP Conc(μM) 1:10
kinases [4] = molecular target: kinases (Homo sapiens, UniProt O96013); conditions: PAK4 FRET-Z-Lyte SP; Test Conc(μM):ATP Conc(μM) 1:5
kinases [5] = molecular target: kinases (Homo sapiens, UniProt P49336); conditions: CDK8/cyclin C FRET-Lantha SP; Test Conc(μM) 1
kinases [6] = molecular target: kinases (Homo sapiens, UniProt O75716); conditions: STK16 (PKL12) FRET-Lantha SP; Test Conc(μM) 1
kinases [7] = molecular target: kinases (Homo sapiens, UniProt Q9NR20); conditions: DYRK4 FRET-Z-Lyte SP; Test Conc(μM):ATP Conc(μM) 1:5
kinases [8] = molecular target: kinases (Homo sapiens, UniProt P42684); conditions: ABL2 (Arg) FRET-Z-Lyte SP; Test Conc(μM):ATP Conc(μM) 1:25
kinases [9] = molecular target: kinases (Homo sapiens, UniProt P07332); conditions: FES (FPS) FRET-Z-Lyte SP; Test Conc(μM):ATP Conc(μM) 1:25
kinases [10] = molecular target: kinases (Homo sapiens, UniProt Q92630); conditions: DYRK2 FRET-Lantha SP; Test Conc(μM) 1
kinases [11] = molecular target: kinases (Homo sapiens, UniProt P08922); conditions: ROS1 FRET-Z-Lyte SP; Test Conc(μM):ATP Conc(μM) 1:50
kinases [12] = molecular target: kinases (Homo sapiens, UniProt Q9UEE5); conditions: STK17A (DRAK1) FRET-Lantha SP; Test Conc(μM) 1
kinases [13] = molecular target: kinases (Homo sapiens, UniProt Q8TD08); conditions: MAPK15 (ERK7) FRET-Lantha SP; Test Conc(μM) 1
kinases [14] = molecular target: kinases (Homo sapiens, UniProt P36888); conditions: FLT3 Hu Phos FRET-Z-Lyte SP; Test Conc(μM):ATP Conc(μM) 1:500
kinases [15] = molecular target: kinases (Homo sapiens, UniProt P43403); conditions: ZAP70 *Mn* FRET-Z-Lyte SP; Test Conc(μM):ATP Conc(μM) 1:5
kinases [16] = molecular target: kinases (Homo sapiens, UniProt Q9P286); conditions: PAK7 (KIAA1264) FRET-Z-Lyte SP; Test Conc(μM):ATP Conc(μM) 1:5
kinases [17] = molecular target: kinases (Homo sapiens, UniProt Q9HBH9); conditions: MKNK2 (MNK2) FRET-Lantha SP; Test Conc(μM) 1
kinases [18] = molecular target: kinases (Homo sapiens, UniProt P16591); conditions: FER FRET-Z-Lyte SP; Test Conc(μM):ATP Conc(μM) 1:25
kinases [19] = molecular target: kinases (Homo sapiens, UniProt P52333); conditions: JAK3 FRET-Z-Lyte SP; Test Conc(μM):ATP Conc(μM) 1:10
kinases [20] = molecular target: kinases (Homo sapiens, UniProt O14757); conditions: CHEK1 (CHK1) FRET-Z-Lyte SP; Test Conc(μM):ATP Conc(μM) 1:50
kinases [21] = molecular target: kinases (Homo sapiens, UniProt Q96RR4); conditions: CAMKK2 (Beta) FRET-Lantha SP; Test Conc(μM) 1
kinases [22] = molecular target: kinases (Homo sapiens, UniProt P45985); conditions: MAP2K4 (MEK4) FRET-Lantha SP; Test Conc(μM) 1
kinases [23] = molecular target: kinases (Homo sapiens, UniProt Q9P289); conditions: MST4 FRET-Z-Lyte SP; Test Conc(μM):ATP Conc(μM) 1:25
kinases [24] = molecular target: kinases (Homo sapiens, UniProt P57058); conditions: HUNK FRET-Lantha SP; Test Conc(μM) 1
kinases [25] = molecular target: kinases (Homo sapiens, UniProt P00533); conditions: EGFR (ErbB1) *Mn* Z-Lyte SP; Test Conc(μM):ATP Conc(μM) 1:10
kinases [26] = molecular target: kinases (Homo sapiens, UniProt P30530); conditions: AXL FRET-Z-Lyte SP; Test Conc(μM):ATP Conc(μM) 1:75
kinases [27] = molecular target: kinases (Homo sapiens, UniProt O60331); conditions: Test Conc(μM):ATP Conc(μM) 1:10
kinases [28] = molecular target: kinases (Homo sapiens, UniProt O00506); conditions: STK25 (YSK1) FRET-Z-Lyte SP; Test Conc(μM):ATP Conc(μM) 1:75
kinases [29] = molecular target: kinases (Homo sapiens, UniProt Q96GD4); conditions: AURKB (Aurora B) Z-Lyte SP; Test Conc(μM):ATP Conc(μM) 1:75

Sequence of kinases (Homo sapiens, UniProt O14757) (O14757 whole entry): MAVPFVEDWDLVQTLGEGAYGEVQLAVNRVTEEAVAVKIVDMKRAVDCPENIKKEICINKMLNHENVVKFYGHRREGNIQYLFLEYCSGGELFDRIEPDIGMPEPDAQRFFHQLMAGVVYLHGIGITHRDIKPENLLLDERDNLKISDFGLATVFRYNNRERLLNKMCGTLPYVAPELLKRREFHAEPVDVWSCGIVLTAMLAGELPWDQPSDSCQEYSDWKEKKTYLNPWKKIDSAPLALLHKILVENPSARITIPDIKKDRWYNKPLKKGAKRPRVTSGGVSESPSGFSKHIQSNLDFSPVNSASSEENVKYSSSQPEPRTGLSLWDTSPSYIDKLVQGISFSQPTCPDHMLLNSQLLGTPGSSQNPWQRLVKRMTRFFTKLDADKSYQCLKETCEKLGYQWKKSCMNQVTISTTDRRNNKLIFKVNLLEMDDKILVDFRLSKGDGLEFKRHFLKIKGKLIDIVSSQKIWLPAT
Sequence of kinases (Homo sapiens, UniProt O60331) (O60331 whole entry): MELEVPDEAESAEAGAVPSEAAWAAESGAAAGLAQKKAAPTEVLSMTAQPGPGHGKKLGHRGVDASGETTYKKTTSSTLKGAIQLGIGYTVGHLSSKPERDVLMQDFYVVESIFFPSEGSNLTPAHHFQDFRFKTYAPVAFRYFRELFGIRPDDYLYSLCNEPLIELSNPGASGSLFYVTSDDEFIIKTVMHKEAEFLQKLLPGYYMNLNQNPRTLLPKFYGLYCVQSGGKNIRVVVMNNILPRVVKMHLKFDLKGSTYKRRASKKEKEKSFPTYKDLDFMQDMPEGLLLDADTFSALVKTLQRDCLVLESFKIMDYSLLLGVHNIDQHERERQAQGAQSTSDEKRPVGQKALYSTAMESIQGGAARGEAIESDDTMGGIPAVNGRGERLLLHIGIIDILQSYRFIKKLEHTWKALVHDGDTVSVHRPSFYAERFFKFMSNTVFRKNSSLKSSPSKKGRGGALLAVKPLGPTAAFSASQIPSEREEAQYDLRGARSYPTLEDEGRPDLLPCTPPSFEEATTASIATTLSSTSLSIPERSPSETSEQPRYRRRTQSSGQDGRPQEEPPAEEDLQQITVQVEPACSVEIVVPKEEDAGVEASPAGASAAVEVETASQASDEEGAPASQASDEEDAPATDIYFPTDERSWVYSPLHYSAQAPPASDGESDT
Sequence of kinases (Homo sapiens, UniProt O00418) (O00418 whole entry): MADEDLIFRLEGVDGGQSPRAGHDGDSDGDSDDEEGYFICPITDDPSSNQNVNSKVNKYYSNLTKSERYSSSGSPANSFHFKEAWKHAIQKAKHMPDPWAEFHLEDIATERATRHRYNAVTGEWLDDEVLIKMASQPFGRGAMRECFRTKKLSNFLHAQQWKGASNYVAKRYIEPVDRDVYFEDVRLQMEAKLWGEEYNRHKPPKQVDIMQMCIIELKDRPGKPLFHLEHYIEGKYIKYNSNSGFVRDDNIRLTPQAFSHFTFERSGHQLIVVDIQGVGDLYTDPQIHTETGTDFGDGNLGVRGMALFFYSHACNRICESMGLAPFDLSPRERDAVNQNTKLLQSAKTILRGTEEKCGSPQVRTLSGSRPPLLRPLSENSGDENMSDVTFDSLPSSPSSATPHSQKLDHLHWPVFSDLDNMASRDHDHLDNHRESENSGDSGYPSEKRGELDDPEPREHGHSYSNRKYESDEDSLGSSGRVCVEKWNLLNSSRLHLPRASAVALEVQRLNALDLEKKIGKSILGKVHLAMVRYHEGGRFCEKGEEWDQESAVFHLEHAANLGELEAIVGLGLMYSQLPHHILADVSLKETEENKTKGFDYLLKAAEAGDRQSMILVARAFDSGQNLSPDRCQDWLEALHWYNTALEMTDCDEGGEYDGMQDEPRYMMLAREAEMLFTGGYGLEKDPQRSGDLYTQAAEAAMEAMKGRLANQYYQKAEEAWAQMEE
Sequence of kinases (Homo sapiens, UniProt P57058) (P57058 whole entry): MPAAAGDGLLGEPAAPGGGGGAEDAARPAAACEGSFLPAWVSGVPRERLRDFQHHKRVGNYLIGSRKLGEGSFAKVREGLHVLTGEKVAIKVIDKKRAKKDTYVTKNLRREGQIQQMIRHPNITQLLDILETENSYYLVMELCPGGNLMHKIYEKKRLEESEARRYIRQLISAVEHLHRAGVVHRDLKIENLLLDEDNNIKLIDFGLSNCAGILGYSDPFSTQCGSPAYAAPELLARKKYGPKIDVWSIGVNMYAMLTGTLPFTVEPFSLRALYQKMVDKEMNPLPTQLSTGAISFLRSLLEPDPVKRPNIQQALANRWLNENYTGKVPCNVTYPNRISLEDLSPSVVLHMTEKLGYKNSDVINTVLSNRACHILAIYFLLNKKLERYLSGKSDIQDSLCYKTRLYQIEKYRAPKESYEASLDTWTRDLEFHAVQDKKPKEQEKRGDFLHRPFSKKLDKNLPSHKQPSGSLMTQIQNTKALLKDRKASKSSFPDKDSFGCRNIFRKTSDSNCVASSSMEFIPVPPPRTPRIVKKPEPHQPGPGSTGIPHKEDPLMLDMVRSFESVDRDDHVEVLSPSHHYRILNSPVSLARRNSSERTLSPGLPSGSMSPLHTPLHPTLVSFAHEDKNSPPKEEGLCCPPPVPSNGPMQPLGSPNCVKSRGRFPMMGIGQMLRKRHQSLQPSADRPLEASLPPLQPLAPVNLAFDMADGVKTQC
Sequence of kinases (Homo sapiens, UniProt Q9P289) (Q9P289 whole entry): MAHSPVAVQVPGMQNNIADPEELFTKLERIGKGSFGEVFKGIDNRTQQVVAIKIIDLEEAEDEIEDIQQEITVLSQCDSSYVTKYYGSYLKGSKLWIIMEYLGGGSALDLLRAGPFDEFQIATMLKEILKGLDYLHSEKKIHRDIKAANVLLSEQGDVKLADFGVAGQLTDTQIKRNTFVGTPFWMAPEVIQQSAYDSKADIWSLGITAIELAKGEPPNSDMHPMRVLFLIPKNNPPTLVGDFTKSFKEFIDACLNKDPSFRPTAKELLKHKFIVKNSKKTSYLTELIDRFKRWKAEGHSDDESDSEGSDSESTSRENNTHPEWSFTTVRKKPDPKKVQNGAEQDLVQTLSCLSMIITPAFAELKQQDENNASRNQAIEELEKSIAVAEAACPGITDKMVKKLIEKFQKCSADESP
Sequence of kinases (Homo sapiens, UniProt O96013) (O96013 whole entry): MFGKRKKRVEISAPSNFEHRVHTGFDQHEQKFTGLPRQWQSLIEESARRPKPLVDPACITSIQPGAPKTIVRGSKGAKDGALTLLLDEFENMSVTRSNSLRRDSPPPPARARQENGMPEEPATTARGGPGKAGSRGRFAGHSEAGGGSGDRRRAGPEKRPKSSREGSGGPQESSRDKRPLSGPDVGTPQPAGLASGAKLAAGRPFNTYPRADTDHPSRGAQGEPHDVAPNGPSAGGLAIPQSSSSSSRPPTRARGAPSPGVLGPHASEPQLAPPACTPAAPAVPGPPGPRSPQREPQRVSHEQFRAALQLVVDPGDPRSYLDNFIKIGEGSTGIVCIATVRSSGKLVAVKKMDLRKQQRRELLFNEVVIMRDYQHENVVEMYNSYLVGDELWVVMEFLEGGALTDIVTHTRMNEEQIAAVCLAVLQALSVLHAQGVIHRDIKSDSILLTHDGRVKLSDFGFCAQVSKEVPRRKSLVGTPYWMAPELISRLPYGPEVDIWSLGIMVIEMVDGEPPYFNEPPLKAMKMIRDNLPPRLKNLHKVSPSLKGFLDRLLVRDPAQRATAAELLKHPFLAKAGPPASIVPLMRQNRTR
Sequence of kinases (Homo sapiens, UniProt P36888) (P36888 27-993): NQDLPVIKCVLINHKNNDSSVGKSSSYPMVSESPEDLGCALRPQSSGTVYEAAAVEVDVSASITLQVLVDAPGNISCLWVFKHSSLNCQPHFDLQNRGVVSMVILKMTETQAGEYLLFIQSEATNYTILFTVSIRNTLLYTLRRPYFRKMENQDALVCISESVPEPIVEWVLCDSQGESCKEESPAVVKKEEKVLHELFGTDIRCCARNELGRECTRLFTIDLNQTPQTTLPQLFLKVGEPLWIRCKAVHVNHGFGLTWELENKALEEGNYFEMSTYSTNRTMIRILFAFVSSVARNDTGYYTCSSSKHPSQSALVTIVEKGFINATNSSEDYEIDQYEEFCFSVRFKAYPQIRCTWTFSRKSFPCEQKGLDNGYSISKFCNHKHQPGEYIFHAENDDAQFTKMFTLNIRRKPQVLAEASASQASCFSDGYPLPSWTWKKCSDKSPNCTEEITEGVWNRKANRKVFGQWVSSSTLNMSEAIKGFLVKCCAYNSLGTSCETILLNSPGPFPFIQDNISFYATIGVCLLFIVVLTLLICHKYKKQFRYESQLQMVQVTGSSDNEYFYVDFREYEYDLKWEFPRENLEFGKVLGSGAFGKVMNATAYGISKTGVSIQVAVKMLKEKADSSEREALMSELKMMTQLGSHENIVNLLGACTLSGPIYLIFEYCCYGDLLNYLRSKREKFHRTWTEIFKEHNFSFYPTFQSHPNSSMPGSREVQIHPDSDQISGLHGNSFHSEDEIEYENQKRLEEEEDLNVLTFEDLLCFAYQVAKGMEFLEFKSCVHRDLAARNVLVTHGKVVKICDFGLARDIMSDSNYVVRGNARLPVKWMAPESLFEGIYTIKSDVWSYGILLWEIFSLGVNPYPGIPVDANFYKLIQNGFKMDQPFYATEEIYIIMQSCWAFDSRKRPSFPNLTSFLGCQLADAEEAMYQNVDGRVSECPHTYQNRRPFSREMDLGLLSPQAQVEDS
Sequence of kinases (Homo sapiens, UniProt O00506) (O00506 whole entry): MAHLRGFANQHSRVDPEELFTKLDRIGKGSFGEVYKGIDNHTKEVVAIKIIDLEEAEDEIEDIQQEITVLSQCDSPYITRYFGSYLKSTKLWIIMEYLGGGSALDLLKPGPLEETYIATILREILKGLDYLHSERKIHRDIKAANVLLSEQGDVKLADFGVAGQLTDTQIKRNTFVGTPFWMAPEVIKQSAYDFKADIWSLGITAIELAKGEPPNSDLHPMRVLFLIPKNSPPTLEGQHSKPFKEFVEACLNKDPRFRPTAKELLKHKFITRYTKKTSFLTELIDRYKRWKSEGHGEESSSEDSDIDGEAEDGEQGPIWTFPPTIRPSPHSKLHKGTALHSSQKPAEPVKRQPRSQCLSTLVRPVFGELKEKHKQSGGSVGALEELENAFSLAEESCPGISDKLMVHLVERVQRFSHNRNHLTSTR

Row | Compound | Mean Inhib (%) (kinases [1]) | Mean Inhib (%) (kinases [2]) | Mean Inhib (%) (kinases [3]) | Mean Inhib (%) (kinases [4]) | Mean Inhib (%) (kinases [5]) | Mean Inhib (%) (kinases [6]) | Mean Inhib (%) (kinases [7]) | Mean Inhib (%) (kinases [8]) | Mean Inhib (%) (kinases [9]) | Mean Inhib (%) (kinases [10]) | Mean Inhib (%) (kinases [11]) | Mean Inhib (%) (kinases [12]) | Mean Inhib (%) (kinases [13]) | Mean Inhib (%) (kinases [14]) | Mean Inhib (%) (kinases [15]) | Mean Inhib (%) (kinases [16]) | Mean Inhib (%) (kinases [17]) | Mean Inhib (%) (kinases [18]) | Mean Inhib (%) (kinases [19]) | Mean Inhib (%) (kinases [20]) | further results
1 | Cc1ccc(NC(=O)c2ccnc(N3CCOCC3)c2)cc1Nc1ccnc(N2CC(C)OC(C)C2)n1 (stereo not shown) [compound 3] | −3.1 | 5.8 | 5.5 | 0.9 | 8.6 | −1.7 | 0.9 | −1.3 | 10.0 | −0.5 | 10.0 | 4.6 | 0.8 | −9.3 | 8.1 | 3.9 | 2.2 | 4.8 | 7.2 | 6.3 | Mean Inhib (%) (kinases [21]): −2.5%; Mean Inhib (%) (kinases [22]): −9.5%; Mean Inhib (%) (kinases [23]): 16.7%; Mean Inhib (%) (kinases [24]): 5.7%; Mean Inhib (%) (kinases [25]): 1.5%; Mean Inhib (%) (kinases [26]): −2.7%; Mean Inhib (%) (kinases [27]; PIP5K1C FRET-Adapta SP): −4.5%; Mean Inhib (%) (kinases [28]): 8.8%; Mean Inhib (%) (kinases [29]): 4.9%
2 | Cc1cc(Oc2ccnc(Nc3ccc(S(N)(=O)=O)cc3)c2)c(-c2ccccn2)nc1C [compound 65] | 3.7 | 4.2 | 3.7 | 7.4 | 5.9 | 3.4 | −4.9 | 82.6 | 6.3 | 9.6 | 8.9 | −1.2 | 1.5 | 8.9 | 0.0 | 4.7 | 2.7 | 5.0 | −7.8 | 14.8 | Mean Inhib (%) (kinases [21]): −3.4%; Mean Inhib (%) (kinases [22]): 14.1%; Mean Inhib (%) (kinases [23]): −9.9%; Mean Inhib (%) (kinases [24]): 11.5%; Mean Inhib (%) (kinases [25]): −1.9%; Mean Inhib (%) (kinases [26]): 1.1%; PIP5K1C FRET-Adapta SP Mean Mean Inhib (%) (kinases [27]; PIP5K1C): 3.2%; Mean Inhib (%) (kinases [28]): 2.0%; Mean Inhib (%) (kinases [29]): 2.7%
